Source: patent publication US6166000A, “Methods for preparation and use of 1α,24(S)-Dihydroxy vitamin . D.sub2” (priority 1995, dated 2000)
Like-named read-outs stand apart in the source and are kept apart here.

Assays:
vitamin D receptor (VDR) = target: T1, vitamin D receptor (VDR) (Homo sapiens, UniProt P11473); assay: Vitamin D-dependent transcriptional activation: growth hormone production in COS-1 cells co-transfected with VDR plasmid and VDRE-GH plasmid; assay type: cell-based; details: for Total GH Production: averages of duplicate determinations
T1 sequence (P11473 1-427): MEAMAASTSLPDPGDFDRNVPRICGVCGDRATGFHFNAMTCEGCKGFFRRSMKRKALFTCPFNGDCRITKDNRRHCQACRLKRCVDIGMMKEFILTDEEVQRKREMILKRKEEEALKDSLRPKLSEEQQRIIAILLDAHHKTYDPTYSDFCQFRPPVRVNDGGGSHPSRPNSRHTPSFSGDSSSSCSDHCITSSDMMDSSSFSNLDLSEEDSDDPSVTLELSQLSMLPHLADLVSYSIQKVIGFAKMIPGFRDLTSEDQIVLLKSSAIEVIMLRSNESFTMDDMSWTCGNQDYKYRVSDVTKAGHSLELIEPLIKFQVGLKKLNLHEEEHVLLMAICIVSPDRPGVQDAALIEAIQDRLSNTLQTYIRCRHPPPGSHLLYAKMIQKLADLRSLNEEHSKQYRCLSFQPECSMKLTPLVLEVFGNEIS
Procedure: The biological activity in vitro of chemically synthesized 1α,24(S)-(OH)2 D2 and 1α,24(R)-(OH)2 D2 was measured using a vitamin D-dependent transcriptional activation model system in which a vitamin D receptor (VDR)-expressing plasmid pSG5-hVDR1/3and a plasmid p(CT4)^4 TKGH containing a Growth Hormone (GH)-gene, under the control of a vitamin D-responsive element (VDRE) were co-transfected into Green monkey kidney, COS-1 cells. DNA's for these two vectors were supplied by Dr. Mark Haussler, Department of Biochemistry, University of Arizona, Tucson, Ariz.
Tranfected cells were incubated with vitamin D metabolites and growth hormone production was measured.

[1] = test system: 1,25-(OH)2 D3 receptor site; details: Ishizuka et al., Steroids 1981, 1982; cited from earlier work
Hep 3B cells = assay: Metabolite production in Hep 3B cells incubated with 1α-OH-D2; assay type: in vitro ADME, human; details: Experiment 2; substrate 1α-OH-D2 10 μM; photodiode array spectrophotometry
Procedure: Substantially pure 1α-(OH)D2 was obtained from Bone Care International, Inc. of Madison, Wis. The 1α-(OH)D2 was cultured for 48 hours with cells derived from a human hepatoma, Hep 3B, in medium devoid of fetal calf serum using known methods in the art.
Lipid extracts of the combined medium and cells were generated by known methods in the art and were subjected to high pressure liquid chromatography (HPLC) on Zorbax-S1L developed with hexane/isopropanol/methanol (91:7:2). The putative 1α,24(?)-(OH)2 D2 metabolite eluted between the parent 1α-(OH)D2 and standard 1α,25-(OH)2 D2 (also obtained from Bone Care International, Inc. of Madison, Wis.). (As used herein, the term "1α,24(?)-(OH)2 D2 " is meant to indicate that the epimeric form has not been identified.) The 1α,24(?)-(OH)2 D2 was further purified by this HPLC system before the metabolite's identification was undertaken using mass spectrometry analysis.
Hep 3B cells were incubated with 1α-OH-D2, as described above, at final concentrations of 1, 10, or 100 nM (Experiment 1), and 1 or 10 μM (Experiment 2) and 1α,24(S)-(OH)2 D2 was extracted and purified. The 1α,24(S)-(OH)2 D2 and 1α,25-(OH)2 D2 metabolites were quantitated by recovered radiolabel (Experiment 1) or by photodiode array spectrophotometry (Experiment 2).

[2] = test system: human osteoporotic patients; details: dosages of 2.0 μg/day or higher; cited from earlier work
[3] = assay type: in vivo, rat
Procedure: Vitamin D2 or 24-OH-D2 was administered (either oral or intraperitoneal supplementation) to vitamin D-deficient rats. Lipid extracts of the plasma were prepared and the metabolites purified by the method of Horst et al. (Horst, R. L., Koszewski, N. J. and Reinhardt, T. A., Biochem., 29:578-82 (1990)) described below for synthesyzing standard biological 1α,24-(OH)2 D2.
Standard biological 1α,24-(OH)2 D2 was synthesized in vitro from 24-OH-D2 by incubating 10 μg of 24-OH-D2 in flask containing 5 ml of 20% kidney homogenates made from vitamin D-deficient chicks. The product of this reaction was isolated by HPLC and identified by mass spectrometry.

[4] = oral or intraperitoneal supplementation, vitamin D-deficient rats, HPLC

C=C1/C(=C\C=C2/CCC[C@]3(C)[C@@H]([C@H](C)/C=C/[C@](C)(O)C(C)C)CC[C@@H]23)C[C@@H](O)C[C@@H]1O [1α,24(R)-(OH)2 D2, 1α,24(R)-dihydroxy vitamin D2]
Total GH Production (vitamin D receptor (VDR); inducer 10^-7 molar): 1300 ng/mL | Total GH Production (vitamin D receptor (VDR); inducer 10^-8 molar): 1100 ng/mL | Net vitamin D-inducible GH-production (vitamin D receptor (VDR); inducer 10^-9 molar): 36 ng/mL | Total GH Production (vitamin D receptor (VDR); inducer 10^-9 molar): 80 ng/mL

C=C1/C(=C\C=C2/CCC[C@]3(C)[C@@H]([C@H](C)CC[C@@H](O)C(C)C)CC[C@@H]23)C[C@@H](O)C[C@@H]1O [1α,24(R)-(OH)2 D3, 1α,24(R)-dihydroxyvitamin D3]
binding to the 1,25-(OH)2 D3 receptor site compared with 1,25-(OH)2 D3 [1]: more tightly than does 1,25-(OH)2 D3 itself

C=C1/C(=C\C=C2/CCC[C@]3(C)[C@@H]([C@H](C)/C=C/[C@H](C)C(C)(C)O)CC[C@@H]23)C[C@@H](O)C[C@@H]1O [1α,25-(OH)2 D2, 1α,25-dihydroxy vitamin D2, reference compound]
Rate of Production (Hep 3B cells): 7.4 pmol per 10^6 cells/day

C=C1/C(=C\C=C2/CCC[C@]3(C)[C@@H]([C@H](C)/C=C/[C@H](C)C(C)C)CC[C@@H]23)C[C@@H](O)C[C@@H]1O [1α-(OH)D2, 1α-hydroxy vitamin D2]
loss of bone mass [2]: will reverse the loss of bone mass

C=C1CC[C@H](O)C/C1=C/C=C1\CCC[C@]2(C)[C@@H]([C@H](C)/C=C/C(C)(O)C(C)C)CC[C@@H]12 (some centres unmarked) [24-OH-D2, 24-hydroxyvitamin D2]
metabolite found in lipid extracts of plasma ([3]; rat, in vivo): one metabolite isolated co-migrated on HPLC with the standard 1α,24-(OH)2 D2

C=C1CC[C@H](O)C/C1=C/C=C1\CCC[C@]2(C)[C@@H]([C@H](C)CCCC(C)(C)O)CC[C@@H]12 [25-OH-D3, 25-hydroxy vitamin D3, reference compound]
Total GH Production (vitamin D receptor (VDR); inducer 10^-6 molar): 1100 ng/mL

C=C1CC[C@H](O)C/C1=C/C=C1\CCC[C@]2(C)[C@@H]([C@H](C)/C=C/[C@H](C)C(C)C)CC[C@@H]12 [vitamin D2, Vitamin D2]
metabolite found in lipid extracts of plasma [3, 4]: one metabolite isolated co-migrated on HPLC with the standard 1α,24-(OH)2 D2

C=C1CC[C@H](O)C/C1=C/C=C1\CCC[C@]2(C)[C@@H]([C@H](C)CCCC(C)C)CC[C@@H]12 [vitamin D3]
metabolite found in lipid extracts of plasma [3, 4]: no detectable 24-OH-D3
